Data published in patent US11292778B2, “Heterocyclyl polymethine IR chromophores” (The Regents of the University of California, priority 2017, dated 2022).
Where “and” joins values, the source holds several entries; their conditions need not be identical. Equal values may be shown once. Entries after “also recorded” stand apart in the source; their conditions may differ.

Tests used:
Assay type in all cases: physicochemical
[1] = Absorbance spectra of the dyes in DCM (UV-Visible/NIR spectrophotometer); settings: for absorption (DCM) λmax: in example paragraphs the longest-wavelength absorbance peak
From the text: (§1) The absorbance spectra in FIG. 2 and FIG. 5 were obtained in DCM on a JASCO V-770 UV-Visible/[…] spectrophotometer with a 2000 nm/min or 4000 nm/min scan rate. Plotted are the baseline corrected and normalized data. The emission spectra in FIG. 2 were taken in DCM on either a Horiba Instruments PTI QuantaMaster Series fluorometer (6), a Fluoromax-3 spectrofluorometer (1, 3-5), or home-built InGaAs array detector (Princeton Instruments). For 6 the following parameters were used: ex. 610 nm, emission collected from 620-900 nm, slits 5 nm, step size 1 nm, integration time 1 s. Plotted is the DCM corrected, baseline corrected, normalized data. For 1, and 3-5, the following parameters were used: slits 5 nm, step size 1 nm, integration time, 0.25 s. Excitation values and emission collection were as follows: 1 (ex. 460, collection 470-800 nm), 5 (ex. 675 nm, collection 685-950 nm), 4 (ex. 840 nm, emission 850-1100 nm), 3 (ex. 730 nm, emission 950-1400). Plotted are the baseline corrected, normalized data. The emission spectra in FIG. 5 were taken in dichloromethane on a Horiba Instruments QuantaMaster Series fluorometer with excitation slits: 15 nm, emission slits: 30 nm, step size: 1 nm, integration time: 0.1 s and excitation wavelengths as indicated.

[2] = Emission spectra of the dyes in DCM; settings: dichloromethane, dyes 1, 3-6 and reference dyes
From the text: as §1

[3] = Absolute fluorescence quantum yield using an integrating sphere; settings: dichloromethane; for ΦF (fluorescence quantum yield): absolute value
Protocol: Polymethine dyes disclosed herein are characterized with respect to their photophysics including absorption, emission, extinction coefficient, quantum yields, and fluorescence lifetime. All quantum yields values obtained are absolute quantum yields values measured using an integrating sphere. Photostabilities are evaluated by sample irradiation with high powered LEDs. Additionally, solvatochromism, solvent compatibility, and stability are assessed.

[4] = Photobleaching under continuous-wave irradiation at 532 nm; settings: for relative rate, krel (photobleaching): 532 nm irradiation; for raw rate, k (photobleaching): continuous-wave irradiation 532 nm, 0.53 fluence
Protocol: Photostabilities of the Flay series were measured under continuous-wave irradiation (532 nm, 0.53 fluence).

[5] = Stability of Flav7 in acetonitrile in the presence of methanol, ethanol or water (absorption over time, LCMS); settings: for change of absorption over time: over 4 hours
Protocol: Concerned about the structure's susceptibility to nucleophilic attack, the stability of Flav7 in the presence of methanol, ethanol, and water was investigated. 3 was dissolved in acetonitrile, and 1-50% water, ethanol, or methanol was introduced. Changes in absorption spectra over time were monitored. […] Further evidence that 3 is stable to water include UV/Vis monitoring of the dose-dependent addition of water to 3 in acetonitrile followed by water removal.
(§2) Finally, the photoluminescence of Flav7 was compared to the prominent SWIR polymethine dyes, IR-26 and IR-1061. IR-26 has been widely-employed as a standard for this region, while IR-1061 has recently been the active component of nanomaterials for […] in vivo imaging. Despite numerous studies which rely on these dyes, the reported ΦF for IR-26 have been inconsistent, and the ΦF of IR-1061 has yet to be thoroughly characterized. Consequently, to establish that Flav7 is more emissive than existing SWIR polymethine dyes, each dye's emission was directly compared using a SWIR camera. We prepared solutions of 3, IR-26, and IR-1061 in dichloromethane with identical absorbance at 808 nm, excited with a diffuse 808 nm laser, and imaged their emission over 1000-1500 nm.

[6] = Comparative emission imaging with a SWIR InGaAs camera, 808 nm excitation
From the text: as §2
Spatially dispersed 808 nm illumination was used to image 1 ml samples in 2.5 mL cuvettes of the SWIR dyes alongside a DCM blank. Each dye was compared at the same position to ensure consistent camera illumination. SWIR images were collected on an InGaAs camera (Princeton Instruments, NIRvana 640) with a 1000 nm long-pass filter. The camera was cooled to −80° C., the analog to digital (AD) conversion rate set to 2 MHz, the gain set to high, and different exposure times used to achieve sufficient signal and/or frame rates. All images were background- and blemish-corrected within the LightField imaging software. […]

Solvatochromism of Flav7 = experiment: Solvatochromism of Flav7
From the text: This family of flavylium dyes has photophysical qualities that are complementary to commonly used cyanine dyes. However, the premier dye in the series is the Flav7 (3) as few emissive polymethine dyes exist in this region. Thus, we thoroughly investigated its stability. First, we explored the solvatochromism of Flav7. […] However, in polar solvents, spectral broadening and accentuation of a high-energy shoulder were observed. This behavior is consistent with SWIR polymethine dyes that experience ground state symmetry breaking due to stabilization of an asymmetric electronic structure.

CN(C)c1ccc2c(c1)OC(c1ccccc1)=C/C2=C\C=C\c1cc(-c2ccccc2)[o+]c2cc(N(C)C)ccc12.[O-][Cl+3]([O-])([O-])[O-] [Dye 5, 7-(dimethylamino)-4-((E)-3-((E)-7-(dimethylamino)-2-phenyl-4H-chromen-4-ylidene)prop-1-en-1-yl)-2-phenylchromenylium perchlorate]
absorption (DCM) ε ([1]; dichloromethane, at absorption λmax, listed as Flav3): ~220,000 M^−1cm^−1
absorption (DCM) λmax ([1]; dichloromethane): 746 nm
absorption (DCM) λmax ([1]; dichloromethane, listed as Flav3): ~745 nm
emission (DCM) λmax [2]: 766 nm
QE, εΦF (quantum efficiency) [3]: 6600 M⁻¹ cm⁻¹
ΦF (fluorescence quantum yield) [3]: 2.9±0.5% and 2.9%
relative rate, krel (photobleaching) ([4]; dichloromethane): 1.00 ± .06
photostability relative to HITCI ([4]; 532 nm laser): 4 fold
photostability (in words) ([4]; 532 nm laser, dichloromethane, listed as Flav3): extremely high photostabilities; also recorded: excellent photostabilities
raw rate, k (photobleaching) ([4]; dichloromethane): 1.00 ± 0.06 s^−1 × 10^−3
ε at 532 nm ([4]; dichloromethane): 2.0 ± 0.1 M^−1cm^−1 × 10^4

CN(C)c1ccc2c(c1)OC(c1ccccc1)=C/C2=C\C=C1/CCCC(/C=C/c2cc(-c3ccccc3)[o+]c3cc(N(C)C)ccc23)=C1Cl.[O-][Cl+3]([O-])([O-])[O-] [Dye 3, 4-((E)-2-((E)-2-chloro-3-(2-((E)-7-(dimethylamino)-2-phenyl-4H-chromen-4-ylidene)ethylidene)cyclohex-1-en-1-yl)vinyl)-7-(dimethylamino)-2-phenylchromenylium perchlorate]
absorption red shift past IR-27 [1]: ~40 nm
absorption (DCM) λmax ([1]; dichloromethane): 1026 nm
emission (DCM) λmax [2]: 1045 nm
emission (DCM) λmax ([2]; listed as Flav7): 1061 nm and 1045 nm
QE, εΦF (quantum efficiency) [3]: 1200 M⁻¹ cm⁻¹
ΦF (fluorescence quantum yield) [3]: 0.53±0.03% and 0.53%
ΦF (fluorescence quantum yield) ([3]; listed as Flav7): 0.53% and 0.53±0.3%
QE, εΦF (quantum efficiency) ([3]; listed as Flav7): 1,200 M^−1cm^−1
relative rate, krel (photobleaching) ([4]; dichloromethane): 40. ± 6.
raw rate, k (photobleaching) ([4]; dichloromethane): 28. ± 3. s^−1 × 10^−3
ε at 532 nm ([4]; dichloromethane): 1.4 ± 0.2 M^−1cm^−1 × 10^4
degradation by LCMS over time ([5]; 0.1 mg/mL in acetonitrile with 10% water): no appreciable degradation
change of λmax,abs at 1013 nm ([5]; acetonitrile with 1% methanol): rapid loss
change of absorption over time ([5]; acetonitrile with 10% ethanol): slight loss
change of absorption over time ([5]; acetonitrile with 10% water): no significant change
absorbance at 1013 nm after water addition and water removal ([5]; acetonitrile, dose-dependent water addition followed by water removal, UV/Vis): restored upon water removal
brightness relative to IR-26 [6]: 13 times
emission intensity compared with the other SWIR dyes ([6]; dichloromethane, identical absorbance at 808 nm, emission 1000-1500 nm): brightest of the three dyes
variation of λmax,abs between solvents (Solvatochromism of Flav7; dichloromethane, dimethyl sulfoxide, acetonitrile, tetrahydrofuran, acetone): minimal variation
behaviour in methanol (Solvatochromism of Flav7; methanol as solvent): immediate color change
